US8778872B2 (priority 2010, dated 2014)
Where two headings read alike, the source gives them in different places. Values belong to the molecule of their own block, whether it stands above or below them. Where a SMILES comes first, the peptide text is derived from it. Where no end group is shown, it is not given here. Side-chain parts run from the residue outwards. [ ]: non-standard residue; d: D form. Ac6c = NC1(C(=O)O)CCCCC1; Ac3c = NC1(C(=O)O)CC1; Aib = CC(C)(N)C(=O)O; PEG40k = 40 kDa PEG; Sar = CNCC(=O)O

What was measured:
[1] = molecular target: T1, GLP-1 receptor (Homo sapiens, UniProt P43220); experiment: Luciferase-based reporter gene assay for cAMP detection, HEK293 cells co-transfected with GLP-1 receptor (prodrug samples pre-incubated in PBS or plasma); type: cell-based
T1 construct: expressed in transfected cells; host or cells: HEK293

[2] = Dipeptide cleavage half time in PBS on model hexapeptide (HPLC / LC-MS); conditions: for Relative peak area(%), HPLC peak a / Relative peak area(%), HPLC peak b: PBS; for Relative peak area(%), HPLC peak a: peak a MW 702; for Relative peak area(%), HPLC peak b: peak b MW 902; for half-life: buffer
[3] = buffer

T1 sequence (P43220 24-463, species assumed): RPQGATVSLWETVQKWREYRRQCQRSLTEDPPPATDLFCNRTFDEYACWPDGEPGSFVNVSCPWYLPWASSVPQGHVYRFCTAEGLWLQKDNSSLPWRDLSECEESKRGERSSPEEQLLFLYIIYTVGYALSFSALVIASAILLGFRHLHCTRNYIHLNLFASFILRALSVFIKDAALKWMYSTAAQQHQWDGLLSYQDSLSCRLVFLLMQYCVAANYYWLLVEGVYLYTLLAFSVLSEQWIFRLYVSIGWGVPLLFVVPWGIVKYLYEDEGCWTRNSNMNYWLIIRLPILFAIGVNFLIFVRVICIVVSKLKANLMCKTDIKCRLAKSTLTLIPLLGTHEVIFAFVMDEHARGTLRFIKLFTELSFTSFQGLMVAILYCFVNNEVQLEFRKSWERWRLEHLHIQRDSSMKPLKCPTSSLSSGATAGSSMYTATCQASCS

Molecule: 40 kPEG-Aib^−1-P^0,C^24GLP(7-36): Aib^−1-P^0,C^24GLP(7-36) pegylated by maleimido-functioned 40 k Da PEG on the SH group of 24-Cys ([Aib]PHAEGTFTSDVSSYLEGQAAKEFIC([maleimide-PEG40k])WLVKGR)
- EC50%/STD ratio ([1]; prodrug incubated in PBS at 37° C. for 30 h): 17.31%
- EC50%/STD ratio ([1]; prodrug incubated in PBS at 37° C. for 54 h): 27.74%
- EC50%/STD ratio ([1]; prodrug incubated in PBS at 37° C. for 240 h): 66.49%
- EC50%/STD ratio ([1]; prodrug incubated in PBS at 37° C. for […]): 55.90%

Molecule: C[C@@H](O)[C@H](NC(=O)CNC(=O)[C@H](CCCNC(=N)N)NC(=O)[C@H](CO)NC(=O)[C@H](Cc1c[nH]cn1)NC(=O)CN(C)C(=O)[C@@H](N)CCCCN)C(=O)N[C@@H](Cc1ccccc1)C(N)=O [A peptide, lys-sar-HSRGTF-NH2] (H-K[Sar]HSRGTF-NH2; N-terminus assumed)
- Relative peak area(%), HPLC peak a ([2]; 5 h): 26.5%
- Relative peak area(%), HPLC peak b ([2]; 5 h): 73.5%
- Relative peak area(%), HPLC peak a ([2]; 8 h): 28.9%
- Relative peak area(%), HPLC peak b ([2]; 8 h): 71.1%
- Relative peak area(%), HPLC peak a ([2]; 24 h): 28.8%
- Relative peak area(%), HPLC peak b ([2]; 24 h): 71.2%
- Relative peak area(%), HPLC peak a ([2]; 31 h): 77.7%
- Relative peak area(%), HPLC peak b ([2]; 31 h): 22.3%
- Relative peak area(%), HPLC peak a ([2]; 47 h): 90.0%
- Relative peak area(%), HPLC peak b ([2]; 47 h): 10.0%

Molecule: C[C@@H](O)[C@H](NC(=O)CNC(=O)[C@H](CCCNC(=N)N)NC(=O)[C@H](CO)NC(=O)[C@H](Cc1c[nH]cn1)NC(=O)[C@@H](N)Cc1ccc(NC(=O)[C@@H]2CCCN2C(=O)[C@@H](N)Cc2ccccc2)cc1)C(=O)N[C@@H](Cc1ccccc1)C(N)=O [Compounds 1]
- half-life [2]: 58 h

Molecule: C[C@@H](O)[C@H](NC(=O)CNC(=O)[C@H](CCCNC(=N)N)NC(=O)[C@H](CO)NC(=O)[C@H](Cc1c[nH]cn1)NC(=O)[C@@H](N)Cc1ccc(NC(=O)[C@@H]2CCCN2C(=O)[C@H](N)Cc2ccccc2)cc1)C(=O)N[C@@H](Cc1ccccc1)C(N)=O [Compounds 3]
- half-life [2]: 20 h

Molecule: C[C@@H](O)[C@H](NC(=O)CNC(=O)[C@H](CCCNC(=N)N)NC(=O)[C@H](CO)NC(=O)[C@H](Cc1c[nH]cn1)NC(=O)[C@@H](N)Cc1ccc(NC(=O)[C@H]2CCCN2C(=O)[C@H](N)Cc2ccccc2)cc1)C(=O)N[C@@H](Cc1ccccc1)C(N)=O [Compounds 4]
- half-life [2]: 39 h

Molecule: C[C@@H](O)[C@H](NC(=O)CNC(=O)[C@H](CCCNC(=N)N)NC(=O)[C@H](CO)NC(=O)[C@H](Cc1c[nH]cn1)NC(=O)[C@@H](N)Cc1ccc(NC(=O)[C@@H]2CCCN2C(=O)CN)cc1)C(=O)N[C@@H](Cc1ccccc1)C(N)=O [Compounds 5]
- half-life [2]: 72 h

Molecule: C[C@@H](O)[C@H](NC(=O)CNC(=O)[C@H](CCCNC(=N)N)NC(=O)[C@H](CO)NC(=O)[C@H](Cc1c[nH]cn1)NC(=O)[C@@H](N)Cc1ccc(NC(=O)[C@@H]2CCCN2C(=O)CO)cc1)C(=O)N[C@@H](Cc1ccccc1)C(N)=O [Compounds 6]
- half-life [2]: 603 h

Molecule: CC(C)C[C@H](N)C(=O)N1CCC[C@H]1C(=O)Nc1ccc(C[C@H](N)C(=O)N[C@@H](Cc2c[nH]cn2)C(=O)N[C@@H](CO)C(=O)N[C@@H](CCCNC(=N)N)C(=O)NCC(=O)N[C@H](C(=O)N[C@@H](Cc2ccccc2)C(N)=O)[C@@H](C)O)cc1 [Compounds 7]
- half-life [2]: 62 h

Molecule: C[C@@H](O)[C@H](NC(=O)CNC(=O)[C@H](CCCNC(=N)N)NC(=O)[C@H](CO)NC(=O)[C@H](Cc1c[nH]cn1)NC(=O)[C@@H](N)Cc1ccc(NC(=O)[C@@H]2CCCN2C(=O)[C@@H](N)C(C)(C)C)cc1)C(=O)N[C@@H](Cc1ccccc1)C(N)=O [Compounds 8]
- half-life [3]: 200 h

Molecule: C[C@@H](O)[C@H](NC(=O)CNC(=O)[C@H](CCCNC(=N)N)NC(=O)[C@H](CO)NC(=O)[C@H](Cc1c[nH]cn1)NC(=O)[C@@H](N)Cc1ccc(NC(=O)[C@@H]2CCCN2C(=O)[C@@H](N)CO)cc1)C(=O)N[C@@H](Cc1ccccc1)C(N)=O [Compounds 9]
- half-life [2]: 34 h

Molecule: C[C@@H](O)[C@H](NC(=O)CNC(=O)[C@H](CCCNC(=N)N)NC(=O)[C@H](CO)NC(=O)[C@H](Cc1c[nH]cn1)NC(=O)[C@@H](N)Cc1ccc(NC(=O)[C@@H]2CCCN2C(=O)C(C)(C)N)cc1)C(=O)N[C@@H](Cc1ccccc1)C(N)=O [Compounds 15]
- half-life [3]: 1.15 h

Molecule: C[C@@H](O)[C@H](NC(=O)CNC(=O)[C@H](CCCNC(=N)N)NC(=O)[C@H](CO)NC(=O)[C@H](Cc1c[nH]cn1)NC(=O)[C@@H](N)Cc1ccc(NC(=O)[C@@H]2CCCN2C(=O)C(C)(C)O)cc1)C(=O)N[C@@H](Cc1ccccc1)C(N)=O [Compounds 16]
- half-life [3]: 33 h

Molecule: C[C@@H](O)[C@H](NC(=O)CNC(=O)[C@H](CCCNC(=N)N)NC(=O)[C@H](CO)NC(=O)[C@H](Cc1c[nH]cn1)NC(=O)[C@@H](N)Cc1ccc(NC(=O)[C@@H]2CCCN2C(=O)C2(N)CCCCC2)cc1)C(=O)N[C@@H](Cc1ccccc1)C(N)=O [Compounds 17]
- half-life [3]: 0.1 h

Continued, values first:

- half-life [2]: 97 h
Molecule: C[C@@H](O)[C@H](NC(=O)CNC(=O)[C@H](CCCNC(=N)N)NC(=O)[C@H](CO)NC(=O)[C@H](Cc1c[nH]cn1)NC(=O)[C@@H](N)Cc1ccc(NC(=O)[C@@H]2CCCN2C(=O)[C@@H]2CCCN2)cc1)C(=O)N[C@@H](Cc1ccccc1)C(N)=O [Compounds 10]

- half-life [2]: 33 h
Molecule: C[C@@H](O)[C@H](NC(=O)CNC(=O)[C@H](CCCNC(=N)N)NC(=O)[C@H](CO)NC(=O)[C@H](Cc1c[nH]cn1)NC(=O)[C@@H](N)Cc1ccc(NC(=O)[C@@H]2CCCN2C(=O)[C@@H](N)CCCCN)cc1)C(=O)N[C@@H](Cc1ccccc1)C(N)=O [Compounds 11]

- half-life [2]: 11 h
Molecule: C[C@@H](O)[C@H](NC(=O)CNC(=O)[C@H](CCCNC(=N)N)NC(=O)[C@H](CO)NC(=O)[C@H](Cc1c[nH]cn1)NC(=O)[C@@H](N)Cc1ccc(NC(=O)[C@@H]2CCCN2C(=O)[C@H](N)CCCCN)cc1)C(=O)N[C@@H](Cc1ccccc1)C(N)=O [Compounds 12]

- half-life [2]: 85 h
Molecule: C[C@@H](O)[C@H](NC(=O)CNC(=O)[C@H](CCCNC(=N)N)NC(=O)[C@H](CO)NC(=O)[C@H](Cc1c[nH]cn1)NC(=O)[C@@H](N)Cc1ccc(NC(=O)[C@@H]2CCCN2C(=O)[C@@H](N)CCC(=O)O)cc1)C(=O)N[C@@H](Cc1ccccc1)C(N)=O [Compounds 13]

- half-life [2]: ~1000 h
Molecule: CNCC(=O)N1CCC[C@H]1C(=O)Nc1ccc(C[C@H](N)C(=O)N[C@@H](Cc2c[nH]cn2)C(=O)N[C@@H](CO)C(=O)N[C@@H](CCCNC(=N)N)C(=O)NCC(=O)N[C@H](C(=O)N[C@@H](Cc2ccccc2)C(N)=O)[C@@H](C)O)cc1 [Compounds 14]

- half-life [2]: 5 h
Molecule: C[C@@H](O)[C@H](NC(=O)CNC(=O)[C@H](CCCNC(=N)N)NC(=O)[C@H](CO)NC(=O)[C@H](Cc1c[nH]cn1)NC(=O)[C@@H]1CCCN1C(=O)C1(N)CCCCC1)C(=O)N[C@@H](Cc1ccccc1)C(N)=O [Peptide 17] (H-[Ac6c]PHSRGTF-NH2)

- half-life [2]: 10 h
Molecule: C[C@@H](O)[C@H](NC(=O)CNC(=O)[C@H](CCCNC(=N)N)NC(=O)[C@H](CO)NC(=O)[C@H](Cc1c[nH]cn1)NC(=O)[C@@H]1CCCN1C(=O)C1(N)CC1)C(=O)N[C@@H](Cc1ccccc1)C(N)=O [Peptide 18] (H-[Ac3c]PHSRGTF-NH2)
